The values that follow come from patent US20140011853A1, “SUBSTITUTED 3-(BIPHENYL-3-YL)-8,8-DIFLUORO-4-HYDROXY-1-AZASPIRO[4.5]DEC-3-EN-2-ONES FOR THERAPY” (BAYER INTELLECTUAL PROPERTY GMBH, priority 2011, published 2014).

One data set concerns Tetranychus urticae. Kind of data set: Tetranychus test, OP-resistant (TETRUR spray treatment). The settings on record: Tetranychus urticae, 144 h, read-out: effect (kill of spider mites). Format: in vivo.
Another data set has as its system Spodoptera frugiperda. Description: Spodoptera frugiperda test (SPODFR spray treatment). Format: in vivo. The settings on record: 500 g/ha, after 7 days.
For another data set, the system named is PC3. Kind of data set: Tumour cell proliferation, CellTiter-Glo, 96-hour incubation, PC3. Format: cell-based. The conditions noted are these: Homo sapiens, PC-3, 96 h, read-out: PC3 IC50. The method, boiled down:
(§1)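 Cells seeded at 2000-5000 cells/well, separate t=0 plate read after overnight at 37° C; compound-treated plates incubated 96 hours at 37° C, CellTiter-Glo luminescence. Growth inhibition (%) from t=96 minus t=0 luminescence, treated versus untreated control.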
(In ATP-based viability assays light output follows the ATP content of the culture.)

Data set [1] in a line: Octanol/water distribution coefficient (logP/D), isocratic HPLC method. In kind it is physicochemical. The settings on record: pH 7.4. From the text:
Assay for Determining the Octanol/Water Distribution Coefficient (logP/D):
The distribution coefficient octanol/water P or D is a key parameter for estimating membrane penetration and permeability. It is defined as the ratio of the equilibrium concentrations of a substance in the two-phase system octanol/water.
It is usually stated in form of the decadic logarithm (logP or logD).
logP describes the distribution behaviour of a substance exclusively present in its neutral form. logD describes the distribution behaviour of a substance at a certain pH; depending on the ionization constant pKa of the substance, some of the substance may be present in ionic form, and some in neutral form.
The logP/D of the active compounds was determined using an isocratic HPLC method (HPLC=high performance liquid chromatography) (literature: OECD Guideline for Testing of Chemicals No. 117). The method is based on the correlation of the HPLC retention time of the test substance to that of reference substances with known distribution coefficients.
The test substance was employed as a 10 mM solution in DMSO (DMSO=dimethyl sulphoxide). 10 μl of this solution were made up to 100 μl with a methanol/water mixture in a ratio of 7+3.
The nine reference substances were dissolved individually in methanol. 100 μl each of the stock solutions were added to an HPLC vial and mixed with 300 μl of water.
A formamide solution was used to determine the hold-up time. To this end, 7 mg of formamide were dissolved in 10 ml of methanol. 100 μl of this stock solution were mixed with 500 μl of methanol and 200 μl of water.
All solutions were chromatographed using a flow rate of 1.00 ml/min.
Injection Protocol: formamide, references, test substance 1, test substance 2, . . . , formamide, references.
Evaluation of the retention times was carried out in a diode array detector (DAD) at 200-400 nm Via the molecular mass, the identity of the test substance was checked using the downstream mass spectrometer.
The HPLC run was evaluated using the Waters software Masslynx 4.1.
The logP/D values were calculated using the software “POW Determination” (proprietary development).

Data set [2] in a line: Plasma protein binding by equilibrium dialysis, human. Format: in vitro ADME. The settings on record: read-out: fu (human). Here is the method: The binding of test substances to plasma proteins is determined by equilibrium dialysis by means of the Ht-dialysis apparatus (96-well) made of Teflon and a semipermeable membrane (regenerated cellulose, MWCO 12-14K). This separates 150 μl each of a plasma side and a buffer side (50 mM phosphate buffer). The test substance is added in 2 concentrations (usually 3 and 0.3 μM) to the plasma side and binds to plasma proteins. The unbound fraction of the test substance passes through the membrane and is distributed on either side until equilibrium is established (after approx. 6-8 h at 37° C.). The substance concentration on the buffer side and the plasma side is determined by LC-MS analysis. For this, both sides are brought by dilution with buffer or plasma to the same matrix (10% plasma) and then precipitated with methanol. The free (unbound) fraction (fu) is calculated from the quotient of the buffer and plasma concentration. Stability tests and recovery tests are run concurrently as controls. In addition, the substance in buffer is dialysed against buffer, to check the nonspecific binding to apparatus and membrane and establishment of equilibrium. Because during incubation the osmotic pressure of the plasma proteins leads to dilution of the plasma (volume shift), this possible error is determined by weighing blank plasma samples and is included in the calculation of fu. Establishment of equilibrium and plasma stability should have a value not lower than 80% and the recovery should be at least 30%. A free fraction of <1% is regarded as high, between 1 and 10% as moderate and >10% as low plasma protein binding.

The subject of another data set is Myzus persicae. Description: Myzus test (MYZUPE spray treatment). The conditions noted are these: Myzus persicae, 144 h, read-out: effect (kill of aphids). Format: in vivo. From the text: Disks of Chinese cabbage (Brassica pekinensis) infested by all stages of the green peach aphid (Myzus persicae) are sprayed with an active compound formulation of the desired concentration.

The next data set concerns the target T1, human ACC1 (Homo sapiens, UniProt Q13085).
T1 construct: FLAG (C); made in house; host or cells: baculovirus-infected insect cells (Hi5)
Kind of data set: Human ACC1 enzyme assay (ADP-Glo). Format: biochemical. The conditions noted are these: ACC 1 IC50, individual measurements. For orientation: ADP-Glo first removes unused ATP, then detects ADP through luciferase.

In a further data set the test system is MCF7. Description: Tumour cell proliferation, CellTiter-Glo, 96-hour incubation, MCF7. The settings on record: Homo sapiens, MCF7, 96 h, read-out: MCF7 IC50. Format: cell-based. In a few lines: as §1
The subject of another data set is H460. Kind of data set: Tumour cell proliferation, CellTiter-Glo, 96-hour incubation, H460. The settings on record: Homo sapiens, NCI-H460, 96 h, read-out: H460 IC50. Format: cell-based. The method, boiled down: as §1

Broadly, the pIC50 is −log10 of the IC50, conventionally taken in molar units. For orientation: chromatographic logP means lipophilicity estimated from chromatographic retention. For orientation: melting point means the temperature, or range, at which the solid turns liquid.

Each structure is given as a SMILES string. pIC50: −log10 of the molar value. Where “and” joins values, the source holds several entries; their conditions need not be identical. Equal entries are not always repeated.

On to `Cc1ccc(-c2ccc(Cl)c(F)c2)cc1C1=C(O)C2(CCC(F)(F)CC2)NC1=O` [Example 1-1, 3-(4′-Chloro-3′-fluoro-4-methylbiphenyl-3-yl)-8,8-difluoro-4-hydroxy-1-azaspiro[4.5]dec-3-en-2-one], for which the pest or weed control at 100 g/ha in the data set on Tetranychus urticae worked out at 90%. Also, the “effect (kill of caterpillars)” value in the data set on Spodoptera frugiperda was found to be 100%. Besides, the pIC50 in the data set with PC3 was 7.41; against human ACC1 it was 6.93 and 6.90 and 7.16 and 7.02 and 7.24 and 7.01 and 7.28 and 7.27; with MCF7, 7.66; with H460, 6.88. Besides, the chromatographic logP in data set [1] came out at 1.9. Moreover, the fraction unbound in [2] was found to be 0.0035. In the data set with Myzus persicae, the pest or weed control at 500 g/ha came to 90%.

The compound `Cc1ccc(-c2ccc(Cl)cc2)cc1C1=C(O)C2(CCC(F)(F)CC2)NC1=O` [Example 1-2, 3-(4′-Chloro-4-methylbiphenyl-3-yl)-8,8-difluoro-4-hydroxy-1-azaspiro[4.5]dec-3-en-2-one] gave a melting point of 105 °C. Also, the pest or weed control at 100 g/ha with Tetranychus urticae was determined as 100%. The “effect (kill of caterpillars)” value in the data set with Spodoptera frugiperda is 100%. In addition, in the data set with PC3, the pIC50 was 7.30. Moreover, the chromatographic logP in data set [1] is 1.73. The fraction unbound in data set [2] amounted to 0.0042. Besides, the pest or weed control at 500 g/ha in the data set with Myzus persicae is 100%. Further, the pIC50 against human ACC1 is 7.17 and 7.10 and 7.00 and 6.96 and 7.14 and 7.19 and 6.87 and 6.82. Moreover, in the data set with MCF7, the pIC50 was 7.52. The negative-log IC50 (pIC50) in the data set on H460 is 6.87.
